Reference: PubChem BioAssay (NCI)
Values joined by “and” are separate entries in the source; they are usually repeats but may differ in a detail not shown here. Identical values can stand only once.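 Following 48 hours of exposure in 96-well plates, responses at five concentrations were used to interpolate endpoints linearly. Here, GI50 denotes the concentration required for 50% inhibition of growth. TGI marks complete inhibition of growth.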

Assays:
Assay in all cases: NCI tumour cell line growth inhibition, 48 h
XF 498 CNS = test system: XF 498 CNS
KM20L2 colon = test system: KM20L2 colon
M19-MEL melanoma = test system: M19-MEL melanoma
LXFL 529 NSCLC = test system: LXFL 529 NSCLC
DLD-1 colon = test system: DLD-1 colon
DMS 114 small cell lung = test system: DMS 114 small cell lung
DMS 273 small cell lung = test system: DMS 273 small cell lung
HOP-18 NSCLC = test system: HOP-18 NSCLC
P388/ADR leukemia = test system: P388/ADR leukemia
SN12K1 renal = test system: SN12K1 renal
RXF-631 renal = test system: RXF-631 renal
P388 leukemia = test system: P388 leukemia

SMILES	TGI (XF 498 CNS)	TGI (KM20L2 colon)	TGI (M19-MEL melanoma)	TGI (LXFL 529 NSCLC)	TGI (DLD-1 colon)	TGI (DMS 114 small cell lung)	TGI (DMS 273 small cell lung)	TGI (HOP-18 NSCLC)	TGI (P388/ADR leukemia)	TGI (SN12K1 renal)	TGI (RXF-631 renal)	TGI (P388 leukemia)	GI50 (XF 498 CNS)	GI50 (KM20L2 colon)	GI50 (M19-MEL melanoma)	GI50 (DLD-1 colon)	GI50 (HOP-18 NSCLC)	GI50 (LXFL 529 NSCLC)	GI50 (DMS 114 small cell lung)	GI50 (DMS 273 small cell lung)
O=C1C2=C(CCCCC2)C2CCCCC12O (stereo not given)	> 100 µM	> 100 µM	> 100 µM	> 100 µM	> 100 µM	> 100 µM	> 100 µM	–	–	–	–	–	–	–	–	–	–	–	–	–
CC(=O)Nc1ccc(-c2nnc(SCC(=O)Nc3cccc([N+](=O)[O-])c3)o2)cc1	–	37.4 µM	28.3 µM	17 µM	35.5 µM	22.3 µM	23.5 µM	65.9 µM	–	–	–	–	–	–	–	–	–	–	–	–
C[C@H](CN1CC(=O)NC(=O)C1)N1CC(=O)NC(=O)C1	> 100 µM	> 100 µM	> 100 µM	–	> 100 µM	–	> 100 µM	> 100 µM	> 96.4 µM	> 100 µM	–	–	–	–	–	–	–	–	–	–
O=C1OC(c2ccc(Cl)cc2)(c2ccc(Cl)cc2)c2c1ccc1ccccc21	> 100 µM	> 100 µM	> 100 µM	> 100 µM	> 100 µM	–	> 100 µM	> 100 µM	–	–	–	–	–	–	–	–	–	–	–	–
CCCCCCCC(=O)OCC(C[As](=O)(O)O)OC(=O)CCCCCCC (stereo not given)	–	30.7 µM	32.4 µM	26.3 µM	30.9 µM	30.6 µM	27.4 µM	29.3 µM	–	–	–	–	–	–	–	–	–	–	–	–
Nc1nn(CC(O)CO)c(=O)s1 (stereo not given)	> 100 µM	> 100 µM	> 100 µM	> 100 µM	> 100 µM	> 100 µM	> 100 µM	> 100 µM	–	–	> 100 µM	–	–	–	–	–	–	–	–	–
C=CC[N+](CCO)(CCO)CCCCCCCCCCCCCCCCCC	–	17.1 µM	11.9 µM	–	30.2 µM	18.4 µM	5.83 µM	21.3 µM	> 49 µM	20.5 µM	–	1.21 µM	–	–	–	–	–	–	–	–
N/C(=N\N=C\c1cc2c(cc1Cl)OCO2)NO	> 34.2 µM	> 100 µM	> 100 µM	–	> 100 µM	> 100 µM	> 77.8 µM	> 100 µM	> 81.3 µM	> 100 µM	–	> 91.9 µM	–	–	–	–	–	–	–	–
Cc1ccc(S(=O)(=O)C2c3nc4ccccc4cc3-c3nc4ccccc4nc32)cc1 (stereo not given)	> 100 µM	> 100 µM	> 100 µM	> 100 µM	> 100 µM	> 100 µM	> 100 µM	–	–	–	–	–	–	–	–	–	–	–	–	–
COc1ccc(/C(Cl)=C(\C=O)c2ccccc2)cc1OC	–	> 100 µM	> 100 µM	55.1 µM	> 100 µM	> 100 µM	> 100 µM	> 100 µM	–	–	–	–	–	–	–	–	–	–	–	–
C=C1C(=O)O[C@@H]2OC3(C)CCC4C(C)CCC1C42OO3 (stereo not given in full)	24.3 µM and 3.88 µM	24.1 µM	14.7 µM and 13.9 µM	–	4.72 µM and 4.65 µM	–	14.2 µM and 13.2 µM	34.5 µM and 30.2 µM	1.2 µM	15.6 µM and 15.1 µM	–	–	12 µM	11.1 µM	2.44 µM	1.02 µM	20.1 µM	–	–	–
C/C(=N\NC(=O)c1cccnc1)c1cccc(/C(C)=N/NC(=O)c2cccnc2)n1.CC(=O)[O-].CC(=O)[O-].[Zn+2]	–	> 100 µM	> 100 µM	> 100 µM	> 100 µM	20.1 µM	98.1 µM	> 26.9 µM	–	–	–	–	–	–	–	–	2.55 µM	0.836 µM	0.949 µM	2.15 µM
COc1ccc(/C=N/n2cnc3c(c2=O)S/C(=C2/SC(=S)N(c4ccc(C)cc4)C2=O)N3c2ccccc2)cc1	–	> 100 µM	> 100 µM	> 100 µM	–	> 100 µM	> 100 µM	–	–	–	–	–	–	–	–	–	–	–	–	–
COC(=O)[C@@]12OC[C@]34C([C@@H](O)C1O)[C@@]1(C)CC(=O)C(O)=C(C)C1C[C@H]3OC(=O)[C@H](OC(=O)/C=C(/c1ccccc1)C(F)(F)F)[C@H]42 (stereo not given in full)	10.6 µM	14 µM	11 µM	15.3 µM	> 25 µM	17 µM	4.87 µM	> 25 µM	–	–	–	–	–	–	–	–	–	–	–	–
